Measured values taken from patent publication US9981969B2, “Imidazole derivatives and methods of use thereof for improving the pharmacokinetics of a drug” (MERCK SHARP & DOHME CORP., priority 2013, dated 2018).

Legend:
[1] = molecular target: T1, CYP2D6 (Homo sapiens, UniProt P10635); test: Cocktail assay for CYPs in human liver microsomes, dextromethorphan O-demethylation (2D6); type: biochemical; settings: 5 μM dextromethorphan, 10 min at 37° C.
T1 construct: 0.1 mg/mL protein human liver microsomes (BD Gentest); tissue BD Gentest; host or cells: human liver microsomes
T1 sequence (P10635 whole entry): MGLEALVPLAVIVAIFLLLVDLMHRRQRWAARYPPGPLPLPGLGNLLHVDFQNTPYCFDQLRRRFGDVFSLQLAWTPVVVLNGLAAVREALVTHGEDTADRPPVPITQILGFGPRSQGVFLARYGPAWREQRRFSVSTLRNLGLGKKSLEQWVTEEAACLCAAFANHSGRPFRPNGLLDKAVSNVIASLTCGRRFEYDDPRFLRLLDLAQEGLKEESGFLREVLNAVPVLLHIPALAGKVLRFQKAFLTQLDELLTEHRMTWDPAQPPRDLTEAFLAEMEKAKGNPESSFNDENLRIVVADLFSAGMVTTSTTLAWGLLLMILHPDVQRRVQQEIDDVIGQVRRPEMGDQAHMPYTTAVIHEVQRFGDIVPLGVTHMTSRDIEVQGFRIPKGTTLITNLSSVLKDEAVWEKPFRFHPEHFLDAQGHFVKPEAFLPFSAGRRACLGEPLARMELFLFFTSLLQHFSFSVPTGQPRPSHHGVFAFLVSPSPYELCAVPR
How it was run: (§1)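 Pooled human liver microsomes (0.1 mg/mL) with substrate cocktail (10 μM phenacetin, 5 μM diclofenac, 30 μM mephenytoin, 5 μM dextromethorphan), 1 mM NADPH, pH 7.4 phosphate, 10 min at 37 °C. Metabolites by LC/MS/MS; IC50 from % inhibition at 6 concentrations up to 10 μM.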

[2] = molecular target: T2, CYP1A2 (Homo sapiens, UniProt P05177); test: Cocktail assay for CYPs in human liver microsomes, phenacetin O-deethylation (1A2); type: biochemical; settings: 10 μM phenacetin, 10 min at 37° C.
T2 construct: 0.1 mg/mL protein human liver microsomes (BD Gentest); tissue BD Gentest; host or cells: human liver microsomes
T2 sequence (P05177 1-516): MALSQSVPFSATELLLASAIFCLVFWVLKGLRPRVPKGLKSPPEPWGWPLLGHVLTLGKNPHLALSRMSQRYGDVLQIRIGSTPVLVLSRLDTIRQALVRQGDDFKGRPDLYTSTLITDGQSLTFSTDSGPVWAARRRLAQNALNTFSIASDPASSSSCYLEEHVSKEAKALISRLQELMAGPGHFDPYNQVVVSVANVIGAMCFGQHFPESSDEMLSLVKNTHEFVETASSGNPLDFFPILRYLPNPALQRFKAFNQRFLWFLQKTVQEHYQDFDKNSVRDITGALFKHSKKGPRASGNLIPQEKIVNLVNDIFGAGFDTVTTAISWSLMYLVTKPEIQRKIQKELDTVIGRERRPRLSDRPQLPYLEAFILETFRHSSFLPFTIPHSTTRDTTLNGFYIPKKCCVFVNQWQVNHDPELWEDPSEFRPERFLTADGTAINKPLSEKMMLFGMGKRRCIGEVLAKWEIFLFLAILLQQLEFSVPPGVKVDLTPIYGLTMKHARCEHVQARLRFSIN
How it was run: as §1

[3] = molecular target: T3, CYP2C19 (Homo sapiens, UniProt P33261); test: Cocktail assay for CYPs in human liver microsomes, mephenytoin 4′-hydroxylation (2C19); type: biochemical; settings: 30 μM mephenytoin, 10 min at 37° C.
T3 construct: 0.1 mg/mL protein human liver microsomes (BD Gentest); tissue BD Gentest; host or cells: human liver microsomes
T3 sequence (P33261 whole entry): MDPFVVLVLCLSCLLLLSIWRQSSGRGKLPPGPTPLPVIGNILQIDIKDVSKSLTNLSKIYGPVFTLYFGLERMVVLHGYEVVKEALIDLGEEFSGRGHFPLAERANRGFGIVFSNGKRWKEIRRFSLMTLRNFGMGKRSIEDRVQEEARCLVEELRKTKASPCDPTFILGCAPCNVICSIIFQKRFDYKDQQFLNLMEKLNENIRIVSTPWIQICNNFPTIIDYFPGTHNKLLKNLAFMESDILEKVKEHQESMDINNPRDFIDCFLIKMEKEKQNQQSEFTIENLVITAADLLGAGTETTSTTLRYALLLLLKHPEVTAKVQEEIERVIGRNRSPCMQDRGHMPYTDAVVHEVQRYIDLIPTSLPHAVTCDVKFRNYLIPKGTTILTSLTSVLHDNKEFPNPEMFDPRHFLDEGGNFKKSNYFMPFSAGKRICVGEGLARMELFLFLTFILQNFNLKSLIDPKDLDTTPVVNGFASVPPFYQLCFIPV
How it was run: as §1

[4] = molecular target: T4, CYP2C9 (Homo sapiens, UniProt P11712); test: Cocktail assay for CYPs in human liver microsomes, diclofenac 4′-hydroxylation (2C9); type: biochemical; settings: 5 μM diclofenac, 10 min at 37° C.
T4 construct: 0.1 mg/mL protein human liver microsomes (BD Gentest); tissue BD Gentest; host or cells: human liver microsomes
T4 sequence (P11712 whole entry): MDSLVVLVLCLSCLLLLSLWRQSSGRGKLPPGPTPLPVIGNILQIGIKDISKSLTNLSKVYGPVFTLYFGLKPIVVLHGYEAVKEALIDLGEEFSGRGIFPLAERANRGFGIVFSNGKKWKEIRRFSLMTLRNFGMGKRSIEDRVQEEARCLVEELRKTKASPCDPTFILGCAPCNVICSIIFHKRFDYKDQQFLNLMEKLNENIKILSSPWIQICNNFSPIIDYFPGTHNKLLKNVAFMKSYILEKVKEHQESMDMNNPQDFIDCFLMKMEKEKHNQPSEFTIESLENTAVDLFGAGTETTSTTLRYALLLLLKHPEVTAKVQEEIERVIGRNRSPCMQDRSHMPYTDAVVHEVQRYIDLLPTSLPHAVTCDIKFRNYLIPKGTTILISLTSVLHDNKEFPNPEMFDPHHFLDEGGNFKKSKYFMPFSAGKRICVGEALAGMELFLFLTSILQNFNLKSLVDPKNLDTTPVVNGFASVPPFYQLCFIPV
How it was run: as §1

[5] = molecular target: T5, CYP3A4 (Homo sapiens, UniProt P08684); test: Cocktail assay for CYPs in human liver microsomes, midazolam 1′-hydroxylation (3A4); type: biochemical; settings: 2 μM midazolam, 10 min at 37° C.
T5 construct: 0.1 mg/mL protein human liver microsomes (BD Gentest); tissue BD Gentest; host or cells: human liver microsomes
T5 sequence (P08684 whole entry): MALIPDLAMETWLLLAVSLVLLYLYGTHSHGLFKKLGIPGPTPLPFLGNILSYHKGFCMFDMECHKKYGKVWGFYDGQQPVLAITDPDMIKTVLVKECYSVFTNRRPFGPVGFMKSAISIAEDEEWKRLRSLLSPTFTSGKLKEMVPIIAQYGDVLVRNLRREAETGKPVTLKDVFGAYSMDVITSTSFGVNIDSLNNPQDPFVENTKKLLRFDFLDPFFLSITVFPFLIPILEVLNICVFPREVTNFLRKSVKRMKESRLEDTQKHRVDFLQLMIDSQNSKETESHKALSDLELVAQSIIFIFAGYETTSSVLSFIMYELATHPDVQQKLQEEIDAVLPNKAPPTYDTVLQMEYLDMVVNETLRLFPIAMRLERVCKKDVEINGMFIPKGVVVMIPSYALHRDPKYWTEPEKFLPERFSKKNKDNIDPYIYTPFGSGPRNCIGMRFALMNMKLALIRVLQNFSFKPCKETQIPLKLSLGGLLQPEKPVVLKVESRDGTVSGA
How it was run: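 CYP3A4 inhibition was measured in human liver microsomes (0.1 mg/mL protein) with 2 μM midazolam as the probe substrate, 1 mM NAPDH, 3.3 mM MgCl2 and 100 mM potassium phosphate buffer (pH 7.4), incubated 10 min at 37° C. After acetonitrile treatment, metabolite was quantified by LC/MS/MS against a tolbutamide internal standard. Percent inhibition at 6 concentrations gave IC50 by SigmaPlot non-linear regression.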

[6] = molecular target: T6, human CYP11B2 (Homo sapiens, UniProt P19099); test: IC50 vs CYP11B2 by measurement of aldosterone synthesis in V79 cells; type: cell-based; settings: V79 cells expressing human CYP11B2, 750 nM DOC, aldosterone HTRF
T6 construct: expressed in transfected cells
T6 sequence (P19099 25-503): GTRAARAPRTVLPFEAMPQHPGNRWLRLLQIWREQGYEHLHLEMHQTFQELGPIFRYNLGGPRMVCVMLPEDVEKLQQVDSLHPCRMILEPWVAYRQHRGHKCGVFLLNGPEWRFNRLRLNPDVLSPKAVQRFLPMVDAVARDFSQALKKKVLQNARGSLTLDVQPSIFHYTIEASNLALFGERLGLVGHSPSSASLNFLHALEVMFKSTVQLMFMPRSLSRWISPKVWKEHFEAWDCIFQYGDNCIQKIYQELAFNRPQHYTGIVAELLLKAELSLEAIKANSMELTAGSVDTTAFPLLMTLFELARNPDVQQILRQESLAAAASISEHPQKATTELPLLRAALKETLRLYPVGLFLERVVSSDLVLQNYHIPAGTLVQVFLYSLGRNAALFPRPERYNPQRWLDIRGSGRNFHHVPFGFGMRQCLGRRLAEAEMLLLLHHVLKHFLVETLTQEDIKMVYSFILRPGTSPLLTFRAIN
How it was run: (§2)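 V79 cells stably expressing CYP11B1 or CYP11B2 were treated with test compound at 10 concentrations (e.g. 10000 down to 0.5 nM), with 1500 nM RSS (CYP11B1) or 750 nM DOC (CYP11B2) as substrate. After ~15 h at RT in the dark, supernatant cortisol/aldosterone was measured by HTRF and back-calculated from a standard curve. IC50 was taken as the inflection point of a four-parameter fit.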

[7] = molecular target: T7, human CYP11B1 (Homo sapiens, UniProt P15538); test: IC50 vs CYP11B1 by measurement of cortisol synthesis in V79 cells; type: cell-based; settings: V79 cells expressing human CYP11B1, 1500 nM RSS, cortisol HTRF
T7 construct: expressed in transfected cells
T7 sequence (P15538 25-503): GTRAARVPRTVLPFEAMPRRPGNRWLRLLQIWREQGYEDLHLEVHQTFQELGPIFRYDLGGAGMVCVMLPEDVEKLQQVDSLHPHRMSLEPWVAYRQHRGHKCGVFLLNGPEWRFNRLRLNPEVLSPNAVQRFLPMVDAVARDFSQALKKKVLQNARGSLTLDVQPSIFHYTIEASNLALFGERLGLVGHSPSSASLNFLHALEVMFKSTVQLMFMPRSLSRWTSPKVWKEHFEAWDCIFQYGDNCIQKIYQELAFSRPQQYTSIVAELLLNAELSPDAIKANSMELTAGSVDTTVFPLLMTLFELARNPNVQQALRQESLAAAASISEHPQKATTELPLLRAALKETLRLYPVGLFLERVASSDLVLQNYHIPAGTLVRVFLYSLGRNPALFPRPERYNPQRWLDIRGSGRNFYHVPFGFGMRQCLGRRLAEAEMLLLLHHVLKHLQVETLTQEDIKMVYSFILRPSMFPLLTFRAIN
How it was run: as §2

Row | Structure (SMILES) | IC50 [1] [µM] | IC50 [2] [µM] | IC50 [3] [µM] | IC50 [4] [µM] | IC50 [5] [µM] | IC50 [6] [µM] | IC50 [7] [µM]
1 | C[C@@H](c1ccccc1-c1ccccc1)n1cncc1C(=O)N1CCC2NCCO[C@@H]2C1 (stereo partly shown) [Compound 34] | 8.05 | > 10 | > 10 | > 10 | 0.0068 | > 50 | 21.2
2 | COCc1ccccc1-c1ccccc1[C@H](C)n1cncc1C(=O)N1CCC2NCCO[C@@H]2C1 (stereo partly shown) [Compound 35] | 9.1 | > 10 | > 10 | > 10 | 0.0055 | 25.8 | 20.4
3 | C[C@@H](c1ccccc1-c1cccc(F)c1)n1cncc1C(=O)N1CCC2NCCO[C@@H]2C1 (stereo partly shown) [Compound 36] | > 10 | > 10 | > 10 | > 10 | 0.0096 | > 50 | 32.7
4 | C[C@@H](c1ccccc1-c1cc(F)cc(F)c1)n1cncc1C(=O)N1CCC2NCCO[C@@H]2C1 (stereo partly shown) [Compound 37] | > 10 | > 10 | > 10 | > 10 | 0.0097 | > 50 | 19.7
5 | C[C@@H](c1ccccc1-c1ccc(F)cc1F)n1cncc1C(=O)N1CCC2NCCO[C@@H]2C1 (stereo partly shown) [Compound 38] | > 10 | > 10 | > 10 | > 10 | 0.0089 | > 50 | 25.3
6 | C[C@@H](c1ccccc1-c1ccc(F)c(F)c1F)n1cncc1C(=O)N1CCC2NCCO[C@@H]2C1 (stereo partly shown) [Compound 39] | 9.45 | > 10 | > 10 | > 10 | 0.0048 | > 50 | 14.6
7 | CCOc1ncccc1-c1ccccc1[C@H](C)n1cncc1C(=O)N1CCC2NCCO[C@@H]2C1 (stereo partly shown) [Compound 40] | > 10 | > 10 | > 10 | > 10 | 0.0095 | 25.9 | 33.3
8 | C[C@@H](c1ccccc1-c1ccc(Cl)nc1)n1cncc1C(=O)N1CCC2NCCO[C@@H]2C1 (stereo partly shown) [Compound 41] | 7.48 | > 10 | > 10 | > 10 | 0.0071 | > 50 | 42.2
9 | C[C@@H](c1ccccc1-c1ccccc1OC(F)(F)F)n1cncc1C(=O)N1CCC2NCCO[C@@H]2C1 (stereo partly shown) [Compound 42] | > 10 | > 10 | > 10 | > 10 | 0.0047 | > 50 | 5.62
10 | C[C@@H](c1ccccc1-c1cccc2c1OCC2)n1cncc1C(=O)N1CCC2NCCO[C@@H]2C1 (stereo partly shown) [Compound 43] | 7.09 | > 10 | > 10 | > 10 | 0.0066 | > 50 | 30.3
11 | COc1ccccc1-c1ccccc1[C@H](C)n1cncc1C(=O)N1CCC2NCCO[C@@H]2C1 (stereo partly shown) [Compound 44] | 5.86 | > 10 | > 10 | > 10 | 0.005 | > 50 | 12.2
12 | C[C@@H](c1ccccc1CN1CCC(F)CC1)n1cncc1C(=O)N1CCC2NCCO[C@@H]2C1 (stereo partly shown) [Compound 45] | > 10 | > 10 | > 10 | > 10 | 0.0077 | > 50 | > 50
13 | C[C@@H](c1ccccc1C(C)(C)F)n1cncc1C(=O)N1CCC2NCCO[C@@H]2C1 (stereo partly shown) [Compound 46] | 5.8 | > 10 | > 10 | > 10 | 0.0109 | 23.1 | > 50
14 | CC(C)c1ccccc1[C@H](C)n1cncc1C(=O)N1CCC2NCCO[C@@H]2C1 (stereo partly shown) [Compound 47] | 9.25 | > 10 | > 10 | > 10 | 0.0085 | 9.02 | 45.3
15 | C[C@@H](c1ccccc1C1CCCC1)n1cncc1C(=O)N1CCC2NCCO[C@@H]2C1 (stereo partly shown) [Compound 48] | > 10 | > 10 | > 10 | > 10 | 0.0055 | 15.5 | 11.3
16 | C[C@@H](c1ccccc1-c1ccc(F)cc1)n1cncc1C(=O)N1CCC(F)(CN2CCOCC2)CC1 [Compound 49] | ≥ 10 | > 10 | 9.54 | > 10 | 0.0037 | 36.3 | 6.03
